From publication PMC7561186, “Rational design of balanced dual-targeting antibiotics with limited resistance” (PLoS Biology, 2020)
Converted amounts (≈) assume the structure as drawn. Where two headings read alike, the source gives them in different places.

How the values were obtained:
[1] = tested on: S. aureus VISA ATCC 700699 GyrB R144I and GyrB I175T; experiment: Second-step frequency-of-resistance assay in GyrB single mutants; assay type: cell-based
Procedure: To determine the spontaneous frequency-of-resistance, approximately 10^10 cells from stationary-phase MHBII broth cultures of S. aureus ATCC 700699 and S. aureus ATCC 43300 were plated to antibiotic-containing plates according to a standard protocol to determine frequency-of-resistance. Prior to plating, bacteria were grown overnight in MHBII medium at 37 °C, 250 rpm, collected by centrifugation, and washed once in equal volumes of MHBII broth. From this concentrated cell suspension (250 μL), approximately 10^10 cells were then plated to each MHBII agarose plates. Using agarose instead of agar reduced drug-adsorption and improved the performance of the assay. […] All experiments were performed in at least 3 replicates. Plates were grown at 37 °C for 72 hours. Total CFUs were determined simultaneously in each experiment by plating appropriate dilutions to antibiotic-free MHBII agar plates. Finally, resistance frequencies for each strain were calculated by dividing the number of colonies formed after a 72-hour incubation at 37 °C by the initial viable cell count.

[2] = tested on: S. aureus clinical isolates; experiment: microbe, parasite or virus in culture; assay type: cell-based

**Q.** For `Cc1[nH]c(C(=O)Nc2nc3c(OCc4ccccc4)cc(C(=O)O)cc3s2)c(Cl)c1Cl` [ULD2], which Resistant colony number ([1]; VISA GyrB I175T, 4xMIC) is on record?
**A.** lawn

**Q.** What about the Resistant colony number ([1]; VISA GyrB R144I, 4xMIC) of the same molecule?
**A.** lawn

**Q.** What about the Resistant colony number ([1]; VISA GyrB R144I, 8xMIC) of the same molecule?
**A.** lawn

**Q.** What about the Frequency-of-Resistance ([1]; VISA GyrB R144I, 12xMIC) of the same molecule?
**A.** 4.65E-08

**Q.** What about the Resistant colony number ([1]; VISA GyrB R144I, 12xMIC) of the same molecule?
**A.** 1312

**Q.** What about the Frequency-of-Resistance ([1]; VISA GyrB R144I, 16xMIC) of the same molecule?
**A.** 3.55E-11

**Q.** What about the Resistant colony number ([1]; VISA GyrB R144I, 16xMIC) of the same molecule?
**A.** 1

**Q.** And the MIC ([2]; S. aureus ATCC 29213, MSSA / VSSA, test date 2018-10-25 (three repeat lines))?
**A.** 0.5 µg/mL (≈ 1.05 µM)

**Q.** And the MIC ([2]; Staphylococcus aureus, ATCC 29213 / MSSA, S. aureus ATCC 29213, MSSA / VSSA, test date 2018-10-25 (three repeat lines), read-out: MIC)?
**A.** 0.25 µg/mL (≈ 0.525 µM)

**Q.** What about the MIC ([2]; Staphylococcus aureus, ATCC 29213 / MSSA, S. aureus ATCC 29213, MSSA / VSSA, test date 2018-11-07, read-out: MIC) of the same molecule?
**A.** 0.25 µg/mL (≈ 0.525 µM)

**Q.** And the MIC ([2]; Staphylococcus aureus, MRSA / NRS 3 / VISA, S. aureus IHMA 1308243, NRS3, MRSA / VISA, read-out: MIC)?
**A.** 0.5 µg/mL (≈ 1.05 µM)

**Q.** What about the MIC ([2]; Staphylococcus aureus, MRSA / NRS 4 / VISA, S. aureus IHMA 649380, NRS4, MRSA / VISA, read-out: MIC) of the same molecule?
**A.** 0.25 µg/mL (≈ 0.525 µM)

**Q.** What about the MIC ([2]; Staphylococcus aureus, MRSA / NRS 18 / VISA, S. aureus IHMA 649386, NRS18, MRSA / VISA, read-out: MIC) of the same molecule?
**A.** 0.5 µg/mL (≈ 1.05 µM)

**Q.** And the MIC ([2]; Staphylococcus aureus, MRSA / NRS 19 / VISA, S. aureus IHMA 649387, NRS19, MRSA / VISA, read-out: MIC)?
**A.** 0.25 µg/mL (≈ 0.525 µM)

**Q.** What about the MIC ([2]; Staphylococcus aureus, MRSA / NRS 21 / VISA, S. aureus IHMA 649388, NRS21, MRSA / VISA, read-out: MIC) of the same molecule?
**A.** 0.25 µg/mL (≈ 0.525 µM)

**Q.** What about the MIC ([2]; Staphylococcus aureus, MRSA / NRS 22 / USA600 / VISA, S. aureus IHMA 649389, NRS22, MRSA / VISA, USA600, read-out: MIC) of the same molecule?
**A.** 0.5 µg/mL (≈ 1.05 µM)

**Q.** What about the MIC ([2]; Staphylococcus aureus, MRSA / NRS 23 / VISA, S. aureus IHMA 649390, NRS23, MRSA / VISA, read-out: MIC) of the same molecule?
**A.** 0.5 µg/mL (≈ 1.05 µM)

**Q.** And the MIC ([2]; Staphylococcus aureus, MRSA / NRS 24 / VISA, S. aureus IHMA 649391, NRS24, MRSA / VISA, read-out: MIC)?
**A.** 0.25 µg/mL (≈ 0.525 µM)

**Q.** And the MIC ([2]; Staphylococcus aureus, MRSA / NRS 26, S. aureus IHMA 649392, NRS26, MRSA / VSSA, read-out: MIC)?
**A.** 0.5 µg/mL (≈ 1.05 µM)

**Q.** And the MIC ([2]; Staphylococcus aureus, MRSA / NRS 27 / VISA, S. aureus IHMA 1308248, NRS27, MRSA / VISA, read-out: MIC)?
**A.** 0.5 µg/mL (≈ 1.05 µM)

**Q.** What about the MIC ([2]; Staphylococcus aureus, MRSA / NRS 29 / VISA, S. aureus IHMA 1308250, NRS29, MRSA / VISA, read-out: MIC) of the same molecule?
**A.** 0.25 µg/mL (≈ 0.525 µM)

**Q.** And the MIC ([2]; Staphylococcus aureus, MRSA / NRS 37 / VISA, S. aureus IHMA 1308251, NRS37, MRSA / VISA, read-out: MIC)?
**A.** 0.5 µg/mL (≈ 1.05 µM)

**Q.** And the MIC ([2]; Staphylococcus aureus, MRSA / NRS 54, S. aureus IHMA 1308253, NRS54, MRSA / VSSA* (*Expected VAN intermediate, confirmed VAN susceptible twice), test date 2018-11-07, read-out: MIC)?
**A.** 0.12 µg/mL (≈ 0.252 µM)

**Q.** And the MIC ([2]; Staphylococcus aureus, MRSA / NRS 56 / VISA, S. aureus IHMA 1308254, NRS56, MRSA / VISA, read-out: MIC)?
**A.** 0.25 µg/mL (≈ 0.525 µM)

**Q.** And the MIC ([2]; Staphylococcus aureus, MRSA / USA100 / VRSA, S. aureus IHMA 672230, VRS1, MRSA / VRSA, USA100, read-out: MIC)?
**A.** 0.25 µg/mL (≈ 0.525 µM)

**Q.** What about the MIC ([2]; Staphylococcus aureus, MRSA / USA100 / VRSA, S. aureus IHMA 672231, VRS2, MRSA / VRSA, USA100, read-out: MIC) of the same molecule?
**A.** 0.25 µg/mL (≈ 0.525 µM)

**Q.** And the MIC ([2]; Staphylococcus aureus, MRSA / USA100 / VRSA, S. aureus IHMA 672234, VRS4, MRSA / VRSA, USA100, read-out: MIC)?
**A.** 0.25 µg/mL (≈ 0.525 µM)

**Q.** And the MIC ([2]; Staphylococcus aureus, MRSA / USA100 / VRSA, S. aureus IHMA 672235, VRS5, MRSA / VRSA, USA100, read-out: MIC)?
**A.** 0.25 µg/mL (≈ 0.525 µM)

**Q.** And the MIC ([2]; Staphylococcus aureus, MRSA / USA100 / VRSA, S. aureus IHMA 672237, VRS7, MRSA / VRSA, USA100, read-out: MIC)?
**A.** 0.25 µg/mL (≈ 0.525 µM)

**Q.** What about the MIC ([2]; Staphylococcus aureus, MRSA / USA100 / VRSA, S. aureus IHMA 672238, VRS8, MRSA / VRSA, USA100, read-out: MIC) of the same molecule?
**A.** 0.25 µg/mL (≈ 0.525 µM)

**Q.** And the MIC ([2]; Staphylococcus aureus, MRSA / USA100 / VRSA, S. aureus IHMA 672239, VRS9, MRSA / VRSA, USA100, read-out: MIC)?
**A.** 0.25 µg/mL (≈ 0.525 µM)

**Q.** And the MIC ([2]; Staphylococcus aureus, MRSA / USA100 / VRSA, S. aureus IHMA 1308256, VRS10, MRSA / VRSA, USA100, read-out: MIC)?
**A.** 0.5 µg/mL (≈ 1.05 µM)

**Q.** And the MIC ([2]; Staphylococcus aureus, MRSA / USA100 / VRSA, S. aureus IHMA 1308258, VRS11b, MRSA / VRSA, USA100, read-out: MIC)?
**A.** 0.25 µg/mL (≈ 0.525 µM)

**Q.** And the MIC ([2]; Staphylococcus aureus, MRSA / USA800 / VRSA, S. aureus IHMA 672233, VRS3b, MRSA / VRSA, USA800, read-out: MIC)?
**A.** 0.06 µg/mL (≈ 0.126 µM)

**Q.** And the MIC ([2]; Staphylococcus aureus, MRSA / VISA / VRSA, all isolates of the panel (MRSA, VISA, VRSA), read-out: MIC against all tested S. aureus clinical isolates)?
**A.** ≤ 1 µg/mL

**Q.** And the MIC ([2]; Staphylococcus aureus, MRSA, S. aureus IHMA 1569509, MRSA / VSSA, read-out: MIC)?
**A.** 0.12 µg/mL (≈ 0.252 µM)

**Q.** And the MIC ([2]; Staphylococcus aureus, MRSA, S. aureus IHMA 1575268, MRSA / VSSA, read-out: MIC)?
**A.** 0.25 µg/mL (≈ 0.525 µM)

**Q.** What about the MIC ([2]; Staphylococcus aureus, MRSA, S. aureus IHMA 1575629, MRSA / VSSA, read-out: MIC) of the same molecule?
**A.** 0.25 µg/mL (≈ 0.525 µM)

**Q.** And the MIC ([2]; Staphylococcus aureus, MRSA, S. aureus IHMA 1577820, MRSA / VSSA, read-out: MIC)?
**A.** 0.5 µg/mL (≈ 1.05 µM)

**Q.** And the MIC ([2]; Staphylococcus aureus, MRSA, S. aureus IHMA 1580300, MRSA / VSSA, read-out: MIC)?
**A.** 0.12 µg/mL (≈ 0.252 µM)

**Q.** What about the MIC ([2]; Staphylococcus aureus, MRSA, S. aureus IHMA 1580940, MRSA / VSSA, read-out: MIC) of the same molecule?
**A.** 0.5 µg/mL (≈ 1.05 µM)

**Q.** What about the MIC ([2]; Staphylococcus aureus, MRSA, S. aureus IHMA 1582100, MRSA / VSSA, read-out: MIC) of the same molecule?
**A.** 0.25 µg/mL (≈ 0.525 µM)

**Q.** What about the MIC ([2]; Staphylococcus aureus, MRSA, S. aureus IHMA 1583795, MRSA / VSSA, read-out: MIC) of the same molecule?
**A.** 1 µg/mL (≈ 2.1 µM)

**Q.** And the MIC ([2]; Staphylococcus aureus, MRSA, S. aureus IHMA 1584223, MRSA / VSSA, read-out: MIC)?
**A.** 0.5 µg/mL (≈ 1.05 µM)

**Q.** What about the MIC ([2]; Staphylococcus aureus, MRSA, S. aureus IHMA 1585316, MRSA / VSSA, read-out: MIC) of the same molecule?
**A.** 0.25 µg/mL (≈ 0.525 µM)

**Q.** And the MIC ([2]; Staphylococcus aureus, MRSA, S. aureus IHMA 1586780, MRSA / VSSA, read-out: MIC)?
**A.** 0.25 µg/mL (≈ 0.525 µM)

**Q.** And the MIC ([2]; Staphylococcus aureus, MRSA, S. aureus IHMA 1587322, MRSA / VSSA, read-out: MIC)?
**A.** 0.25 µg/mL (≈ 0.525 µM)

**Q.** What about the MIC ([2]; Staphylococcus aureus, MRSA, S. aureus IHMA 1588127, MRSA / VSSA, read-out: MIC) of the same molecule?
**A.** 0.25 µg/mL (≈ 0.525 µM)

**Q.** And the MIC ([2]; Staphylococcus aureus, MRSA, S. aureus IHMA 1591462, MRSA / VSSA, read-out: MIC)?
**A.** 0.12 µg/mL (≈ 0.252 µM)

**Q.** And the MIC ([2]; Staphylococcus aureus, MRSA, S. aureus IHMA 1592755, MRSA / VSSA, read-out: MIC)?
**A.** 0.5 µg/mL (≈ 1.05 µM)

**Q.** And the MIC ([2]; Staphylococcus aureus, MRSA, S. aureus IHMA 1592776, MRSA / VSSA, read-out: MIC)?
**A.** 0.25 µg/mL (≈ 0.525 µM)

**Q.** And the MIC ([2]; Staphylococcus aureus, MRSA, S. aureus IHMA 1597106, MRSA / VSSA, read-out: MIC)?
**A.** 0.5 µg/mL (≈ 1.05 µM)

**Q.** What about the MIC ([2]; Staphylococcus aureus, MRSA, S. aureus IHMA 1602095, MRSA / VSSA, read-out: MIC) of the same molecule?
**A.** 0.25 µg/mL (≈ 0.525 µM)

**Q.** And the MIC ([2]; Staphylococcus aureus, MRSA, S. aureus IHMA 1611170, MRSA / VSSA, read-out: MIC)?
**A.** 0.25 µg/mL (≈ 0.525 µM)
